Structures can show the parent of a compound that is named as a salt.
What was measured:
[1] = test system: cytokine-treated neonatal human epidermal keratinocytes (HEK); experiment: qPCR of pro-inflammatory and antioxidant genes in cytokine-treated keratinocytes; format: cell-based; conditions: 4 μg/ml, 24 h, IL-17A/IL-22/TNFα treated HEK
Description: A separate assay study was conducted on cytokine-treated neonatal human epidermal keratinocytes (HEK) looking at the expression impact of IDMF and dimethyfumarate (DMF) on key pro-inflammatory and antioxidant genes. In preparation for the assay, HEK (p2; Cell Applications, San Diego) were cultured at optimal conditions [keratinocyte growth medium supplemented with KGM-Gold Bullet kit (Lonza, Switzerland)] to form a segmented monolayer. A cytokine mix of IL-17A/IL-22/TNFα (100 ng/ml; 100 ng/ml; 10 ng/ml; Antigenix, Huntington Station, N.Y.) was added and the cell cultures incubated for 24 h. […] Thereafter, each test material was added to the cultures at 4 μg/ml (final concentration) in triplicate and the cultures incubated for a further 24 hours.
After the 24-hour incubation with the test materials, the cells were observed through a Nikon Eclipse TS100 inverted microscope. No gross morphological changes were recorded. RNA was then extracted and purified with NucleoSpin RNA II kit from Machery-Nagel, Bethlehem, Pa., using QiaCube robotic station (Qiagen, Valencia, Calif.). Purified total RNA was assessed at 260 nm and 280 nm with NanoDrop Lite (Thermo Fisher Scientific, Waltham, Mass.), pure samples with A260A/280 and A260/A230 ratios of >1.7 were standardized and the expression of the genes of interest (Table 3) was measured by real-time quantitative PCR with BioRad iCycler iQ Detection System using custom-made PCR arrays (Qiagen, Valencia, Calif.; part #24caph12190), 5×All-In-One 1st Strand cDNA Synthesis Mix (Bioland Scientific, Paramount, Calif.) and 2×qPCR Master Mix (Bioland). Efficiency ΔΔCt method was used for quantification of results, after the normalization of gene expression to GAPDH/PPIA housekeeping gene. Genes were considered differentially expressed if the level of expression was reasonably high (less than 30 cycles to detect) and the modulation was >1.7. […] Even assuming IDMF fully metabolizes to MMF, there is still considerably more MMF from DMF as opposed to the same amount, based on weight, of IDMF.

[2] = test system: NFE2L2 (NRF2) binding sites; experiment: Enrichment of NFE2L2 (NRF2) and other binding sites upstream of IDMF-regulated genes; format: cell-based, human
Description: RNA sample processing and microarray hybridizations were performed using the Affymetrix Human Genome U133 Plus 2.0 array platform. DNA microarray samples evaluated included IDMF- and vehicle-treated KCs (n=2 replicates per group). Samples were normalized using the robust multichip average (RMA) algorithm. Identification of probe sets with detectable expression was performed using the MAS 5.0 method, which identifies probe sets with above-background expression based upon the Wilcoxon signed rank test. To limit redundancy in downstream analyses, a single probe set was chosen to represent each protein-coding human gene featured on the microarray platform. This representative was chosen as the probe set with highest expression for each protein-coding human gene. These probe sets were then additionally filtered to include only those with detectable expression in at least 1 of the 4 samples (P<0.05, Wilcoxon signed rank test). Overall, this yielded a total of 12330 protein-coding genes that were included in analyses, with each gene represented by a single representative probe set. Bayesian linear models and moderated t-statistics were then used to evaluate differential expression for each of the 12330 genes (IDMF vs. CTL treatment; R package: limma). To control the false discovery rate (FDR), raw p-values generated from linear model analyses were adjusted using the Benjamini-Hochberg method.
As noted in the background section above, the transcription factor nuclear factor (erythroid-derived 2)-like 2 (NFE2L2/NRF2) has previously been associated with multiple sclerosis. In this study, IDMF-regulated genes were evaluated to determine the extent to which IDMF led to the enrichment of NFE2L2/NRF2 binding sites in promoter-proximal regions. For these analyses, a NFE2L2/NRF2 binding site was obtained from the JASPAR database (JASPAR ID: MA0150). This binding site partially matches the consensus sequence 5-[A/G]TGAC—AGCA-3: additional information can be obtained from http://jaspar.genereg.net/cgi-bin/jaspar_db.pl?ID=MA0150.1&rm=present&collection=CORE. Tests for enrichment were performed by scanning regions 1 kb, 2 kb or 5 kb upstream of protein-coding genes, including either all sequence (conserved=No) or only sequences conserved among mammalian species (conserved=Yes). A positive Z statistic indicates a trend towards increased NFE2L2 (NRF2) binding sites in sequences upstream of IDMF-increased […] (DEGs), as compared to all other expressed genes). P-values indicate the significance of the reported Z statistic (semiparametric generalized additive logistic models). Predicted targets include IDMF-increased DEGs with the NFE2L2 (NRF2) binding site identified within the scanned upstream region.

[3] = test system: human fetal astrocytes derived from cerebral cortex; experiment: Comparative RT-PCR evaluation of selected genes in astrocytes; format: cell-based
Description: Experiments were performed using human fetal astrocytes derived from cerebral cortex (cat. no. 882A-05f; Cell Applications, Sant Diego, Calif.). Cells were grown to subconfluence in human astrocyte growth medium (cat. no. 820-500, Cell Applications). […] Test materials were added to subconfluent cultures at a concentration of 2.5 μM and cells were incubated for 24 hours.
RNA was extracted following the incubation period using the RNAeasy Mini Plus kit (Qiagen, Hilden, Germany) and robotic Qiacube Connect station (Qiagen). Samples were shipped on dry ice to the Thermo Fisher Microarray Research Services Laboratory (Santa Clara, Calif.) for transcriptome analysis. RNA quality analysis was performed upon sample receipt using the NanoDrop Lite (Thermo Fisher Scientific, Waltham, Mass.). All samples had 260/280 nm absorbance ratios higher than 1.90, consistent with high-purity RNA.
The expression of selected genes was further evaluated using RT-PCR. cDNA was prepared using the AzuraQuant cDNA kit (Azura Genomics, Raynham, Mass.) and PCR reactions were performed using the BioRad iCycler iQ Detection System with Fast Green qPCR Master Mix—Fluor (Azura Genomics). PCR primers were purchased from Realtimeprimers (Elkins Park, Pa.). The ΔΔCt method [Livak K. J. and Schmittgen T. D. Analysis of relative gene expression data using real-time quantitative PCR and the 2(−Delta Delta C(T)) Method. Methods (San Diego, Calif.) 25(4):402-408, 2001]. was used to estimate fold changes with cycle threshold values normalized based upon the expression of glyceraldehyde-3-phosphate dehydrogenase (GAPDH).

COC(=O)/C=C/C(=O)O[C@H]1CO[C@H]2[C@@H]1OC[C@H]2OC(=O)/C=C/C(=O)OC [IDMF, isosorbide di-(methyl fumarate)]
CXCL3 fold change [1]: −1.1 fold
IL8 fold change [1]: 1.4 fold
NFE2L2 fold change [1]: 2.6 fold
PTGS2 fold change [1]: 1.2 fold
enrichment of NF-kappaB binding sites upstream of IDMF-decreased genes ([2]; FDR<0.10 with FC<0.67, P=1.16E-08): strongly enriched
Z Statistic, enrichment of NFE2L2 (NRF2) binding sites upstream of IDMF-increased DEGs ([2]; Region 1 kb, Conserved No): 4.74
Z Statistic, enrichment of NFE2L2 (NRF2) binding sites upstream of IDMF-increased DEGs ([2]; Region 1 kb, Conserved Yes): 5.91
Z Statistic, enrichment of NFE2L2 (NRF2) binding sites upstream of IDMF-increased DEGs ([2]; Region 2 kb, Conserved No): 3.37
Z Statistic, enrichment of NFE2L2 (NRF2) binding sites upstream of IDMF-increased DEGs ([2]; Region 2 kb, Conserved Yes): 3.21
Z Statistic, enrichment of NFE2L2 (NRF2) binding sites upstream of IDMF-increased DEGs ([2]; Region 5 kb, Conserved No): 2.11
Z Statistic, enrichment of NFE2L2 (NRF2) binding sites upstream of IDMF-increased DEGs ([2]; Region 5 kb, Conserved Yes): 1.05
OSGIN1 expression ([3]; FIG. 11(B)): enhancing expression
expression of key MS-associated genes (IL-6, ICAM1, MALT1, TNFAIP3, IRF1, CXCL8) ([3]; FIGS. 11(C) through 11(H)): marked suppression
